Results on 13 molecules are retold here after patent US6252121A, “Metal-ligand complex catalyzed processes” (Union Carbide Chemicals & Plastics Technology Corporation, priority 1999, dated 2001).

Data set [1] in a line: Partition of polar hydroformylation products, acetonitrile/hexane (GC). It counts as physicochemical. Particulars: hexane/acetonitrile equal volumes. Here is the method:
The efficiency of the phase separation can be measured by a partition coefficient Kp of the one or more cyclic products which is defined as follows: [formula]
Solutions of polar hydroformylation products were prepared in acetonitrile. To each solution was added an equal volume of hexane, the mixture was vigorously shaken, allowed to settle and phase separate. The two phases were analyzed for polar aldehydes by gas chromatography.

Data set [2] is described as follows: Hydroformylation reaction rate of rhodium/ligand catalyst. The settings on record: 90° C., 300 ppm Rh, ligand/rhodium 20/1. Here is the method: […] A mixture of 1,2,3,6-tetrahydrobenzaldehyde (6 grams) and octane (4 grams, internal standard) was added to the autoclave. The reaction rate was determined by gas chromatographic analyses of the samples taken during the course of reaction.
The procedure described in Example 1 was repeated with the modification of using Ligands B-F in place of Ligand A. The reaction rates for Ligands B-F are summarized in Table 1.

Data set [3] in a line: Relative hydroformylation reaction rates with Ligands C and G-J. Here is the method:
[…]. A mixture of 1,2,3,6-tetrahydrobenzaldehyde (6 grams) and octane (4 grams, internal standard) was added to the autoclave. The reaction rate was determined by gas chromatographic analyses of the samples taken during the course of reaction.

Data set [4] can be described thus: Miscibility of reaction products with toluene (Comparative Example). It counts as physicochemical. The settings on record: reaction at 100° C. for 24 hours; no spontaneous phase separation. Here is the method:
The reaction was carried out at 100° C. for 24 hours. No spontaneous phase separation was observed upon the reaction completion.

Where [5] appears, read: hexane, 100 psi syngas (CO/H2 1:1).
Setting [6] is: Tetraglyme, 90° C., L/Rh ratio 20.

For the molecule “1,3- and 1,4-cyclohexanedicarboxaldehyde”, the “Kpartition of polar product” value in data set [1] (5 wt. %) is 38; in data set [1] (10 wt. %), 34; in data set [1] (20 wt. %), 35.

Regarding “3-cyano-1-cyclohexanecarboxaldehyde and 4-cyano-1-cyclohexanecarboxaldehyde [cyanocyclohexanecarboxaldehyde]”, the “Kpartition of polar product” value in data set [1] (10 wt. %) is recorded as 69.

`CC(C)(c1ccccc1)c1ccc(OP(Oc2ccc(C(C)(C)c3ccccc3)cc2C(C)(C)c2ccccc2)Oc2ccc(C(C)(C)c3ccccc3)cc2C(C)(C)c2ccccc2)c(C(C)(C)c2ccccc2)c1` [Ligand A] registered a reaction rate in data set [2] (setting [5]) of 2.5 mol/L-hr.

Turning to `CC(C)(C)c1ccccc1OP(Oc1ccccc1C(C)(C)C)Oc1ccccc1C(C)(C)C` [Ligand B], in data set [2] (setting [5]), the reaction rate came to 3.4 mol/L-hr.

Consider `CC(C)(C)c1ccc(OP(Oc2ccc(C(C)(C)C)cc2C(C)(C)C)Oc2ccc(C(C)(C)C)cc2C(C)(C)C)c(C(C)(C)C)c1` [Ligand C], for which the reaction rate is given as 4.0 mol/L-hr in data set [2] (setting [5]) and 4.4 mol/L-hr in data set [2] (toluene in place of hexane, 100 psi syngas). Besides, the “Relative Rate” value in data set [3] (setting [6]) is on record as 1.

Molecule `CCC(C)(C)c1ccc(OP(Oc2ccc(C(C)(C)CC)cc2C(C)(C)CC)Oc2ccc(C(C)(C)CC)cc2C(C)(C)CC)c(C(C)(C)CC)c1` [Ligand D] showed a reaction rate in data set [2] (setting [5]) of 3.6 mol/L-hr.

Molecule `CCCCCC(C)(C)c1ccc(OP(Oc2ccc(C(C)(C)CCCCC)cc2C(C)(C)CCCCC)Oc2ccc(C(C)(C)CCCCC)cc2C(C)(C)CCCCC)c(C(C)(C)CCCCC)c1` [Ligand E] displayed a reaction rate in data set [2] (setting [5]) of 3.7 mol/L-hr.

In turn, `CCCCCCCCCC(C)(C)c1ccc(OP(Oc2ccc(C(C)(C)CCCCCCCCC)cc2C(C)(C)CCCCCCCCC)Oc2ccc(C(C)(C)CCCCCCCCC)cc2C(C)(C)CCCCCCCCC)c(C(C)(C)CCCCCCCCC)c1` [Ligand F] showed a reaction rate in data set [2] (setting [5]) of 3.3 mol/L-hr.

Regarding `COc1ccc(Op2oc3c(C(C)(C)C)cc(OC)cc3c3cc(OC)cc(C(C)(C)C)c3o2)c(C(C)(C)C)c1` [Ligand G], in data set [3] (setting [6]), the “Relative Rate” value is recorded as 0.46.

Regarding `CC(C)(C)c1cc(-c2cc(C(C)(C)C)cc(C(C)(C)C)c2Op2oc3ccccc3c3ccccc3o2)c(Op2oc3ccccc3c3ccccc3o2)c(C(C)(C)C)c1` [Ligand H], the “Relative Rate” value in data set [3] (Tetraglyme, 90° C., L/Rh ratio 4) is recorded as 0.34.

Take `C1CCC(P(C2CCCCC2)C2CCCCC2)CC1` [Ligand I]: the “Relative Rate” value in data set [3] (Tetraglyme, 120° C., L/Rh ratio 5) is 0.17.

`O=S(=O)(O)c1cccc(P(C2CCCCC2)C2CCCCC2)c1` [Ligand J]: in data set [3] (1-Methyl-2-pyrrolidinone, 120° C., L/Rh ratio 5), the “Relative Rate” value was 0.14.

In the case of tricyclodecane dialdehydes, in data set [4], the miscibility with toluene entry was “completely miscible with toluene”.
